Measured values reported in patent US6391913B1 (priority 1998, dated 2002).
Where two headings read alike, the source gives them in different places.

How the values were obtained:
CCL6 cells = test: Cytotoxicity of derivatives on CCL6 cell line (Alamar Blue assay, ID50); type: cell-based
Protocol: The cytotoxicity activity of the derivatives was evaluated on CCL6 cell line. The cells were maintained in RPMI 1640 supplemented with fetal calf serum 10% at 37° C., under a 5% CO2 atmosphere. Cells were plated at 2500 cells per well in 96 well plates. Drugs or derivatives were added 24 hours later. After three days of incubation with drugs or derivatives, 10 μl of Alamar Blue were added to the medium. The Alamar assay was performed as described by Pagé et al. (Pagé, B., et al., Int. J. Oncol., 3, 473-476, 1993), and the ID50 was calculated.

[1] = Chloroform extraction (chloroform-water), mixed one hour, HPLC
[2] = Ratio ID50 of derivative/ID50 of paclitaxel, CCL6 cells, three days of incubation, Alamar Blue

Molecule	relative ID* CCL6 (CCL6 cells)	relative ID* CCL6 (CCL6 cells; [2])	Organic phase/aqueous phase [1]
CC(=O)OC1C(=O)C2(C)C(O)CC3OCC3(OC(C)=O)C2C(OC(=O)c2ccccc2)C2(O)CC(OC(=O)C(OC(=O)CCCCCCCCC(=O)O)C(NC(=O)c3ccccc3)c3ccccc3)C(C)=C1C2(C)C (centres unmarked) [Product 5, 2′-(decanedioic acid)-paclitaxel monoester]	20		
2′-[N-(aminohexyl)-amidohexanoic acid]paclitaxel ester [Taxamine 5]		13	
CC(=O)OC1C(=O)C2(C)C(O)CC3OCC3(OC(C)=O)C2C(OC(=O)c2ccccc2)C2(O)CC(OC(=O)C(OC(=O)CCCCC(=O)NCCN)C(NC(=O)c3ccccc3)c3ccccc3)C(C)=C1C2(C)C (centres unmarked) [Taxamine 1, 2′-[N-(aminoethyl)-amidohexanoic acid]-paclitaxel ester]		24	151
CC(=O)O[C@H]1C(=O)[C@@]2(C)[C@H]([C@H](OC(=O)c3ccccc3)[C@]3(O)C[C@H](OC(=O)[C@H](O)[C@@H](NC(=O)c4ccccc4)c4ccccc4)C(C)=C1C3(C)C)[C@]1(OC(C)=O)CO[C@@H]1C[C@@H]2O [paclitaxel, reference compound]		1	
